Measured values published in US20120128630A1, “1-(6 MEMBERS AZO-HETEROCYCLIC)-PYRROLIN-2-ONE COMPOUNDS AS INHIBITORS OF HEPATITIS C NS5B POLYMERASE, THE PHARAMACEUTICAL COMPOSITION THEREOF AND THEIR THERAPEUTIC USE” (priority 2009, published 2012).

target: T1, HCV NS5B genotype 1b (Hepatitis C virus genotype 1b, UniProt Q9WMX2); assay: 3D-SCREEN assay (NS5B 3D-Screen platform, luciferase reporter gene); format: cell-based; details: EC50_3DS_NS5B, Table 1, 3D-SCREEN assay results; Huh-7 cells, 24 hours with compound, firefly luciferase reporter
T1 construct: The protein was expressed with a 21 amino acid C-terminal deletion to remove transmembrane domain; expressed in transfected cells; host or cells: Huh-7
Text: cDNA encoding HCV NS5B genotype 1b, was cloned in frame with Gal4-DNA Binding Domain. The protein was expressed with a 21 amino acid C-terminal deletion to remove transmembrane domain. Expression of NS5BΔ21/Gal4 DBD fusion protein was under control of SV40 early promoter. 3D-Sensor peptide was cloned in frame with VP16 activation domain. Expression of 3D-Sensor/VP16 AD fusion protein was under control of CMV promoter. Expression of the firefly luciferase reporter gene was inducible by the [Target protein/conformation sensitive peptide/VP16AD] complex.
It is a single-target, cell based assay. Briefly, expression of a reporter gene depends on the interaction of a short peptide, thereafter named 3D-Sensor, and native conformation of the target protein. Whenever the conformation of the target protein is modified, interaction between 3D-sensor and target protein is disrupted and reporter gene is not expressed anymore. Conformation modifiers are identified by loss of expression of reporter gene. NS5B 3D-Screen platform was generated in Huh-7 cell lines by transient transfection of three expression vectors encoding respectively
(i) HCV NS5BΔ21/Gal4-DBD fusion protein
(ii) the 3D-sensor peptide I4/VP16 fusion protein
(iii) the firefly luciferase reporter gene
Huh-7 cells were dissociated the day before transfection and seeded in T175 flasks at a density of 10^7 cells in 30 ml culture medium. Equimolar ratios of vectors were transfected in cell according to optimized jetPEI transfection protocol (PolyPlus Transfection, Illkirch, France) and 10 μg total DNA/10^6 cells. Transfection was performed for 2 hours at 37° C. and 5% CO2 in a humidified atmosphere. After two hours cells were dissociated and seeded in 96 wells plates at a density of 25,000 cells per well and 90 μl culture medium. 10 μl of compounds to be tested were added 2 hours after seeding. Final concentration of DMSO was 1%. Cells were incubated in the presence of compounds for 24 hours after which expression of firefly luciferase reporter gene was quantified. Briefly, culture medium was removed and cells were lysed by addition of 100 μl of lysis buffer containing 125 mM Tris Phosphate ph 7.8, 10 mM EDTA, 5 mM DTT, 50% glycerol and 5% Triton. Plates were vortexed 10 min at 1300 rpm. Cell lysat was transferred in OpaqueWhite Assay 96 well Flat Bottom plates. 100 μl of luciferin solution 1× were added to each well. Luciferin solution contained 40 mM Tris Phosphate ph 7.8, 0.2 mM EDTA, 67 mM DTT, 2.14 mM MgCl2, 5.4 mM MgSO4, 4.7×10^−4 M luciferin, 5.3×10^−4 M ATP and 2.7×10^−4 M Acetyl co enzyme A. Luminescence was immediately measured with Berthold Microlumat Plus LB 96V luminometer with an integration of 0.5 sec. Inhibition was calculated using the formula: % inhibition=(1−(read/average max))*100. Average max=signal in absence of compound

| Compound | EC50 [µM] |
| --- | --- |
| Cc1ccc(N2C(=O)C(O)=C(C(=NOCC(=O)O)c3ccc(C(C)C)cc3)C2c2ccc(OC(F)(F)F)cc2)nn1 (mixture of isomers) [Example 83, [[4-Hydroxy-1-(6-methyl-pyridazin-3-yl)-5-oxo-2-(4-trifluoromethoxy-phenyl)-2,5-dihydro-1H-pyrrol-3-yl]-(4-isopropyl-phenyl)-methyleneaminooxy]-acetic acid] | 8 |
| COCCON=C(C1=C(O)C(=O)N(c2ccc(C)nn2)C1c1ccc(OC(F)(F)F)cc1)c1ccc(C(C)C)cc1 (mixture of isomers) [Example 84, 3-Hydroxy-4-{(4-isopropyl-phenyl)-[2-methoxy-ethoxyimino]-methyl}-1-(6-methyl-pyridazin-3-yl)-5-(4-trifluoromethoxy-phenyl)-1,5-dihydro-pyrrol-2-one] | 3 |
| Cc1ccc(C(=O)C2=C(O)C(=O)N(c3ccc(C)nn3)C2c2ccc(C(F)(F)F)cc2)cc1 (centres unmarked) [Example 18, 3-hydroxy-4-(4-methyl-benzoyl)-1-(6-methyl-pyridazin-3-yl)-5-(4-trifluoromethyl-phenyl)-1,5-dihydro-pyrrol-2-one] | 1 |
| COc1ccc(C(=O)C2=C(O)C(=O)N(c3ccc(C)nn3)C2c2ccc(OC(F)(F)F)cc2)cc1 (centres unmarked) [Example 23, 3-hydroxy-4-(4-methoxy-benzoyl)-1-(6-methyl-pyridazin-3-yl)-5-(4-trifluoromethoxy-phenyl)-1,5-dihydro-pyrrol-2-one] | 1 |
| COc1ccc(C2C(C(=O)c3ccc(OC(F)(F)F)cc3)=C(O)C(=O)N2c2ccc(C)nn2)cc1 (centres unmarked) [Example 24, 3-hydroxy-5-(4-methoxy-phenyl)-1-(6-methyl-pyridazin-3-yl)-4-(4-trifluoromethoxy-benzoyl)-1,5-dihydro-pyrrol-2-one] | 3 |

same assay, conditions: EC50_3DS_NS5B, Table 2, titled Replicon assay results

| Compound | EC50 [µM] |
| --- | --- |
| Cc1ccc(N2C(=O)C(O)=C(C(=O)c3ccc(C(C)C)cc3)[C@@H]2c2ccc(C(C)(F)F)cc2)nn1 [Example 197, 5(S)-[4-(1,1-difluoro-ethyl)-phenyl]-3-hydroxy-4-(4-isopropyl-benzoyl)-1-(6-methyl-pyridazin-3-yl)-1,5-dihydro-pyrrol-2-one] | < 10 |

tested on: not given; assay: not given; details: not given

| Compound | melting point [°C] |
| --- | --- |
| COC(=O)c1ccc(N2C(=O)C(O)=C(C(=O)c3ccc(C)cc3)C2c2ccc(C(C)(C)C)cc2)nc1 (centres unmarked) | 287 to 288 |
| COc1ccc(C(=O)C2=C(O)C(=O)N(c3ccc(C)nn3)C2c2ccc(OC(F)(F)F)cc2)cn1 (centres unmarked) | 250 to 251 |
| CCOc1ccc(C2C(C(=O)c3ccc(C(C)C)cc3)=C(O)C(=O)N2c2ccc(C)nn2)nc1 (centres unmarked) | 198 to 199 |
| Cc1ccc(N2C(=O)C(O)=C(C(=O)c3ccc(OC(F)(F)F)cc3)C2c2ccc(Cn3ncnn3)cc2)nn1 (centres unmarked) | 258 |
| Cc1ccc(N2C(=O)C(O)=C(C(=O)c3ccc(OC(F)(F)F)cc3)C2c2ccc(Cn3ccnn3)cc2)nn1 (centres unmarked) | 275 |
| Cc1ccc(N2C(=O)C(O)=C(C(=O)c3ccc(OC(F)(F)F)cc3)C2c2ccc(Cn3nccn3)cc2)nn1 (centres unmarked) | 277 |
| Cc1ccc(N2C(=O)C(O)=C(C(=O)c3ccc(OC(F)(F)F)cc3)C2c2ccc(Cn3cnnn3)cc2)nn1 (centres unmarked) | > 300 |
| Cc1ccc(N2C(=O)C(O)=C(C(=O)c3ccc(OC(F)(F)F)cc3)C2c2ccc(Cn3cncn3)cc2)nn1 (centres unmarked) | 224 |
| COc1cccc(C2C(C(=O)c3ccc(C)cc3)=C(O)C(=O)N2c2ccc(C)nn2)c1 (centres unmarked) | 265 |
| Cc1ccc(C(=O)C2=C(O)C(=O)N(c3ccc(C)nn3)C2c2cccc(C(F)(F)F)c2)cc1 (centres unmarked) | 232 |
| COC(=O)c1ccc(N2C(=O)C(O)=C(C(=O)c3ccc(C)cc3)C2c2ccc(C(C)C)cc2)nc1 (centres unmarked) | 264 to 266 |
| COc1ccccc1C1C(C(=O)c2ccc(C)cc2)=C(O)C(=O)N1c1ccc(C)nn1 (centres unmarked) | 211 to 213 |
| Cc1ccc(N2C(=O)C(O)=C(C(=O)c3ccc(C(C)C)cc3)C2c2ccc(OCCN3CCOCC3)cc2)nn1 (centres unmarked) | 256 |
| Cc1ccc(C(=O)C2=C(O)C(=O)N(c3ccc(C)nn3)C2c2ccc(OC3CCN(C)CC3)cc2)cc1 (centres unmarked) | 259 to 260 |
| COc1ccc(C2C(C(=O)c3ccc(N4CCOCC4)cc3)=C(O)C(=O)N2c2ccc(C)nn2)cc1 (centres unmarked) | 232 |
| Cc1ccc(N2C(=O)C(O)=C(C(=NOCC(=O)O)c3ccc(C(C)C)cc3)C2c2ccc(C(C)C)cc2)nn1 (centres unmarked) | 234 |
| Cc1ccc(C(=O)C2=C(O)C(=O)N(c3ccc(C)nn3)C2c2ccc(C)cc2C)cc1 (centres unmarked) | 254 |
| Cc1ccc(C(=O)C2=C(O)C(=O)N(c3ccc(C)nn3)C2c2ccc(OCCN(C)C)cc2)cc1 (centres unmarked) | 263 to 266 |
| Cc1ccc(C(=O)C2=C(O)C(=O)N(c3ccc(C(F)(F)F)cn3)C2c2ccc(C(C)C)cc2)cc1 (centres unmarked) | 255 to 257 |
| Cc1ccc(C(=O)C2=C(O)C(=O)N(c3ccc(C)nn3)C2c2ccc(N3CCN(CCN(C)C)CC3)cc2)cc1 (centres unmarked) | 185.3 |
| COc1ccc(COc2ccc(C(=O)C3=C(O)C(=O)N(c4ccc(C)nn4)C3c3ccc(OC(F)(F)F)cc3)cc2)cc1 (centres unmarked) | 206 to 209 |
| COC1=C(C(=O)c2ccc(C)cc2)C(c2ccc(OC(F)(F)F)cc2)N(c2ccc(C)nn2)C1=O (centres unmarked) | 206 to 207 |
| Cc1ccc(N2C(=O)C(O)=C(C(=O)c3ccc(-c4ccccn4)cc3)C2c2ccc(OC(F)(F)F)cc2)nn1 (centres unmarked) | 247 to 249 |
| Cc1ccc(N2C(=O)C(O)=C(C(=NOCC(=O)O)c3ccc(C(C)C)cc3)C2c2ccc(OC(F)(F)F)cc2)nn1 (mixture of isomers) [Example 83, [[4-Hydroxy-1-(6-methyl-pyridazin-3-yl)-5-oxo-2-(4-trifluoromethoxy-phenyl)-2,5-dihydro-1H-pyrrol-3-yl]-(4-isopropyl-phenyl)-methyleneaminooxy]-acetic acid] | 227 |
| COCCON=C(C1=C(O)C(=O)N(c2ccc(C)nn2)C1c1ccc(OC(F)(F)F)cc1)c1ccc(C(C)C)cc1 (mixture of isomers) [Example 84, 3-Hydroxy-4-{(4-isopropyl-phenyl)-[2-methoxy-ethoxyimino]-methyl}-1-(6-methyl-pyridazin-3-yl)-5-(4-trifluoromethoxy-phenyl)-1,5-dihydro-pyrrol-2-one] | 115 to 118 |
| Cc1ccc(C(=O)C2=C(O)C(=O)N(c3ccc(C)nn3)C2c2ccc(C(F)(F)F)cc2)cc1 (centres unmarked) [Example 18, 3-hydroxy-4-(4-methyl-benzoyl)-1-(6-methyl-pyridazin-3-yl)-5-(4-trifluoromethyl-phenyl)-1,5-dihydro-pyrrol-2-one] | 278 |
| COc1ccc(C(=O)C2=C(O)C(=O)N(c3ccc(C)nn3)C2c2ccc(OC(F)(F)F)cc2)cc1 (centres unmarked) [Example 23, 3-hydroxy-4-(4-methoxy-benzoyl)-1-(6-methyl-pyridazin-3-yl)-5-(4-trifluoromethoxy-phenyl)-1,5-dihydro-pyrrol-2-one] | 265 |
| COc1ccc(C2C(C(=O)c3ccc(OC(F)(F)F)cc3)=C(O)C(=O)N2c2ccc(C)nn2)cc1 (centres unmarked) [Example 24, 3-hydroxy-5-(4-methoxy-phenyl)-1-(6-methyl-pyridazin-3-yl)-4-(4-trifluoromethoxy-benzoyl)-1,5-dihydro-pyrrol-2-one] | 279 |

More lines, now with the values ahead:

| melting point [°C] | Compound |
| --- | --- |
| 259 to 266 | CC(=O)c1ccc(C2C(C(=O)c3ccc(C(C)C)cc3)=C(O)C(=O)N2c2ccc(C)nn2)cc1 (centres unmarked) |
| 273 to 278 | Cc1ccc(N2C(=O)C(O)=C(C(=O)c3ccc(C(C)C)cc3)C2c2ccc(F)cc2)nn1 (centres unmarked) |
| 222 to 224 | Cc1ccc(N2C(=O)C(O)=C(C(=O)c3ccc(C(C)C)cc3)C2c2ccc(O)cc2)nn1 (centres unmarked) |
| > 300 | Cc1ccc(N2C(=O)C(O)=C(C(=O)c3ccc(C(C)C)cc3)C2c2ccc(Cn3cnnn3)cc2)nn1 (centres unmarked) |
| 223 | Cc1ccc(N2C(=O)C(O)=C(C(=O)c3ccc(C(C)C)cc3)C2c2ccc(Cn3cncn3)cc2)nn1 (centres unmarked) |
| 284 | Cc1ccc(N2C(=O)C(O)=C(C(=O)c3ccc(C(C)C)cc3)C2c2ccc(-n3cncn3)cc2)nn1 (centres unmarked) |
| 263 | Cc1ccc(N2C(=O)C(O)=C(C(=O)c3ccc(C(C)C)cc3)C2c2ccc(Cn3cccn3)cc2)nn1 (centres unmarked) |
| 293 | Cc1ccc(N2C(=O)C(O)=C(C(=O)c3ccc(C(C)C)cc3)C2c2ccc(Cn3ccnn3)cc2)nn1 (centres unmarked) |
| 271 | Cc1ccc(N2C(=O)C(O)=C(C(=O)c3ccc(C(C)C)cc3)C2c2ccc(Cn3ncnn3)cc2)nn1 (centres unmarked) |
| 271 | Cc1ccc(N2C(=O)C(O)=C(C(=O)c3cccc(Cl)c3)C2c2ccc(C(C)C)cc2)nn1 (centres unmarked) |
| 280 | Cc1ccc(N2C(=O)C(O)=C(C(=O)c3ccc(C(C)C)cc3)C2c2ccc(Oc3ccccn3)cc2)nn1 (centres unmarked) |
| 293 | Cc1ccc(N2C(=O)C(O)=C(C(=O)c3ccc(C(C)C)cc3)C2c2ccc(-c3nnc(C)o3)cc2)nn1 (centres unmarked) |
| 221 | Cc1ccc(N2C(=O)C(O)=C(C(=O)c3ccccc3C)C2c2ccc(C(C)C)cc2)nn1 (centres unmarked) |
| 266 | COc1ccc(C2C(C(=O)c3ccc(C)cc3)=C(O)C(=O)N2c2ccc(C)nn2)cc1 (centres unmarked) |
| 259 | COc1ccc(C(=O)C2=C(O)C(=O)N(c3ccc(C)nn3)C2c2ccc(OC)cc2)cc1 (centres unmarked) |
| 245 to 250 | Cc1cccc(C(=O)C2=C(O)C(=O)N(c3ccc(C)nn3)C2c2ccc(C(C)C)cc2)c1 (centres unmarked) |
| 269 to 270 | Cc1ccc(C(=O)C2=C(O)C(=O)N(c3ccc(C(C)C)nn3)C2c2ccc(C(C)C)cc2)cc1 (centres unmarked) |
| 198 to 203 | Cc1ccc(N2C(=O)C(O)=C(C(=O)c3ccc(C(C)C)cc3)C2c2ccc(N3CCN(C)CC3)cc2)nn1 (centres unmarked) |
| 248 to 249 | COC1=C(C(=O)c2ccc(C)cc2)C(c2ccc(C(C)C)cc2)N(c2ccc(C)nn2)C1=O (centres unmarked) |
